Experimental data as given in patent US8969565B2, “Imidazo[1,2-b]pyridazine-based compounds, compositions comprising them, and methods of their use” (Lexicon Pharmaceuticals, Inc., priority 2012, dated 2015).

target: T1, AAK1 (Homo sapiens, UniProt Q2M2I8); experiment: HEK281 cell-based assay (phospho-mu2 Western blot in transfected HEK293F cells); details: 3 hours incubation, read-out: CBA IC50
T1 construct: HA; expressed in transfected cells; host or cells: HEK293F
Procedure: HEK293F cells were cultured in media containing DMEM (Gibco, cat. #11965), 10% FBS (SAFC Biosciences, cat. #12103C), 1×GPS (glutamine, penicillin and streptomycin). On day one, cells were plated on a 10 cm dish so that they are ˜80% confluent at time of transfection. Roughly 12 million cells were in a 10 cm dish at time of transfection. On day two, each dish was transfected with 48 ug DNA and 144 ul Lipofectamine 2000 (Invitrogen, cat.#11668-019). The DNA was comprised of a mixture (per 10 cm dish) containing 3 ug AAK1/HA/pIRES (full length human, NCBI accession no. NP_055726.2), 45 μg Flag/AP2MI/pcDNA (full length human), and 1.5 ml OPTI-MEM. The Lipofectamine 2000 is made up of a mixture (per 10 cm dish) containing 144 μl Lipofectamine 2000 and 1.5 ml OPTI-MEM. Each mixture was transferred to individual 15 ml tubes and incubated at RT for 5 minutes, and then the two mixes were combined and incubated at RT for 20 minutes. Growth media was then aspirated from each 10 cm plate and replaced with 10 ml of DMEM+10% FBS (no GPS). Finally, 3 ml DNA/Lipofectamine mix was added to each 10 cm dish and mix gently followed by incubate of plate overnight at 37° C. and 5% CO2.
On day three, compounds were diluted in 100% DMSO at 1000× final concentration, followed by 3-fold serial dilutions for a total of 5 concentrations tested. Four compounds were tested per 10 cm dish. One ul of each compound dilution was then pipetted into a deep-well, 96-well plate, followed by addition of 500 μl DMEM+0.5% FBS into each well for a 2× final concentration of each compound. Cells were resuspended in a 10 cm dish by simple pipetting (HEK293 cells come off the plate that easy at this point) and then transferred to a 50 ml conical tube and pelleted by centrifugation at 1000 rpm for 5 min. Cell pellets were then resuspended in 2.75 ml DMEM+0.5% FBS per 10 cm dish and 100 μl of cell suspension transferred into each well of 96-well TC plate. Finally, 100 μl of 2× compound diluted in DMEM+0.5% FBS was then added into wells containing cell suspension for a 1× final concentration. Plates were then incubated at 37° C. and 5% CO2 for 3 hours followed by transferring of cell suspensions from each well into 12-tube PCR strips. The PCR strips were spun in a tip rack at 1000 rpm for 5 minutes to pellet cells and media was then removed by pipetting without disturbing the cell pellet.
To prepare for Western Blot analysis, cell pellets were resuspend in 40 ul 1×LDS-PAGE sample buffer (Invitrogen, cat.#NP0008)+2× Halt phophatase and protease inhibitor cocktail (Thermo Scientific, cat.#1861284), followed by sonicating each with microtip sonicator set at 5 for 8-10 seconds. Five ul of 10× NuPage Sample Reducing Agent (with 50 mM DTT) was to each sample followed by heat denaturing at 70 C for 10 min on PCR machine. A total of 10 μl per sample was loaded into each lane of a 4-20% Tris-Glycine Criterion 26-well gel (Biorad, cat.#345-0034) for the phospho-mu2 blot and 10 μl per lane in a 4-12% Bis-Tris (+MES buffer) NuPAGE 26-well gel (Invitrogen, cat.#WG1403BX10) for the mu2 blot. For controls, 2 ng of phospho-mu2 or 20 ng mu2/Flag proteins were loaded in the last well of each gel. After SDS-PAGE, samples on each gel were transferred to PVDF membrane using an iBlot and membranes were blocked for one hour in TBST+5% milk, followed by wash 3× for 5-10 min with TBST. Criterion gels were probed with rabbit anti-phospho-mu2 (1:5000; a rabbit polyclonal antibody produced by New England Peptide and affinity purified at Lexicon) in TBST+5% BSA, whereas, NuPAGE gels were probed with mouse anti-Flag (1:500; Sigma, cat.#F1804) in TBST+5% milk, and these primary antibodies were incubated overnight at 4° C. on a rocker.

T1 sequence (Q2M2I8 1-863 isoform Q2M2I8-2): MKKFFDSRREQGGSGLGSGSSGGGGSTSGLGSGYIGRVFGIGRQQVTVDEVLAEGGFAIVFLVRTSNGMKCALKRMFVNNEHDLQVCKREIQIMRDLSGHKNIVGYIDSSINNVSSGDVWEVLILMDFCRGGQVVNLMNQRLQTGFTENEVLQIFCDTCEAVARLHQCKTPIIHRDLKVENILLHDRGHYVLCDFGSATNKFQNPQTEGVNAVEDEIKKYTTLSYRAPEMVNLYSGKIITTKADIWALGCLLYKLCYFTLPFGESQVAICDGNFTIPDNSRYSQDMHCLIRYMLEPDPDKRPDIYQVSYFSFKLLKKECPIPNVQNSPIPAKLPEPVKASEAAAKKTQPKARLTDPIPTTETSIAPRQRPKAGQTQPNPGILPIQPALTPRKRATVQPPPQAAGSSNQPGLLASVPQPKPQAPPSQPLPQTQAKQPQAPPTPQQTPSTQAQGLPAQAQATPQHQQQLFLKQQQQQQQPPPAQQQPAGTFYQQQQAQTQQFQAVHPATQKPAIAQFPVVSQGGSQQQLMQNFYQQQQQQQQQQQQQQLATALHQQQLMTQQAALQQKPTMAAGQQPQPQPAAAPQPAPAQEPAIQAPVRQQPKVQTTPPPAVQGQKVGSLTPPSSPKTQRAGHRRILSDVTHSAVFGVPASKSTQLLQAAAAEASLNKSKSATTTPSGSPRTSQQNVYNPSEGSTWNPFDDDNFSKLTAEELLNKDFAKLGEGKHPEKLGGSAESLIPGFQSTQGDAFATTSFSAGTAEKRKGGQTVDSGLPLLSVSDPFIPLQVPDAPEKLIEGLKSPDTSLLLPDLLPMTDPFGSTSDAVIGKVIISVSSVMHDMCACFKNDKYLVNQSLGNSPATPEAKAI

Row | SMILES | IC50
1 | CNCCCNc1ccc2ncc(-c3ccc(C(C)=O)s3)n2n1 [1-(5-(6-((3-(methylamino)propyl)amino)imidazo[1,2-b]pyridazin-3-yl)thiophen-2-yl)ethanone] | ≤ 1000 nM
2 | COCCCNc1ccc2ncc(-c3ccc(C(C)=O)s3)n2n1 [1-(5-(6-((3-methoxypropyl)amino)imidazo[1,2-b]pyridazin-3-yl)thiophen-2-yl)ethanone] | ≤ 1000 nM
3 | CC(=O)c1ccc(-c2cnc3ccc(NCC(C)C)nn23)s1 [1-(5-(6-(isobutylamino)imidazo[1,2-b]pyridazin-3-yl)thiophen-2-yl)ethanone] | ≤ 1000 nM
4 | CCCNc1ccc2ncc(-c3ccc(C(C)=O)s3)n2n1 [1-(5-(6-(propylamino)imidazo[1,2-b]pyridazin-3-yl)thiophen-2-yl)ethanone] | ≤ 1000 nM
5 | COc1cnccc1-c1cnc2ccc(NCCN(C(=O)OCCF)C(C)C)nn12 [2-fluoroethyl isopropyl(2-((3-(3-methoxypyridin-4-yl)imidazo[1,2-b]pyridazin-6-yl)amino)ethyl)carbamate] | ≤ 1000 nM
6 | Cc1nc(C)c(-c2cnc3ccc(NCCOCC(C)C)nn23)s1 [3-(2,4-dimethylthiazol-5-yl)-N-(2-isobutoxyethyl)imidazo[1,2-b]pyridazin-6-amine] | ≤ 1000 nM
7 | CC(C)(C)OCCCNc1ccc2ncc(-c3ccnc(N)c3)n2n1 [3-(2-aminopyridin-4-yl)-N-(3-(tert-butoxy)propyl)imidazo[1,2-b]pyridazin-6-amine] | ≤ 1000 nM
8 | CCCCNc1ccc2ncc(-c3ccnc(N)c3)n2n1 [3-(2-aminopyridin-4-yl)-N-butylimidazo[1,2-b]pyridazin-6-amine] | ≤ 1000 nM
9 | COc1ncccc1-c1cnc2ccc(NCC3CCOC3)nn12 (stereo not drawn) [3-(2-methoxypyridin-3-yl)-N-((tetrahydrofuran-3-yl)methyl)imidazo[1,2-b]pyridazin-6-amine] | ≤ 1000 nM

Further lines, results first:

Row | IC50 | SMILES
10 | ≤ 100 nM | CC(C)(C)N1CCN(CCNc2ccc3ncc(-c4ccc(CN)cc4)n3n2)C1=O [1-(2-((3-(4-(aminomethyl)phenyl)imidazo[1,2-b]pyridazin-6-yl)amino)ethyl)-3-(tert-butyl)imidazolidin-2-one]
11 | ≤ 100 nM | COc1cnccc1-c1cnc2ccc(N3CCN(C(=O)CC(C)(C)C)CC3)nn12 [1-(4-(3-(3-methoxypyridin-4-yl)imidazo[1,2-b]pyridazin-6-yl)piperazin-1-yl)-3,3-dimethylbutan-1-one]
12 | ≤ 100 nM | CC(=O)c1ccc(-c2cnc3ccc(NCCN(C)c4ccccc4)nn23)s1 [1-(5-(6-((2-(methyl(phenyl)amino)ethyl)amino)imidazo[1,2-b]pyridazin-3-yl)thiophen-2-yl)ethanone]
13 | ≤ 100 nM | CCCCN(C)c1ccc2ncc(-c3ccc(C(C)=O)s3)n2n1 [1-(5-(6-(butyl(methyl)amino)imidazo[1,2-b]pyridazin-3-yl)thiophen-2-yl)ethanone]
14 | ≤ 100 nM | COc1cnccc1-c1cnc2ccc(NCCN3CCN(C(C)(C)C)C3=O)nn12 [1-(tert-butyl)-3-(2-((3-(3-methoxypyridin-4-yl)imidazo[1,2-b]pyridazin-6-yl)amino)ethyl)imidazolidin-2-one]
15 | ≤ 10 nM | COc1cnccc1-c1cnc2ccc(NCCCC(F)(F)F)nn12 [3-(3-methoxypyridin-4-yl)-N-(4,4,4-trifluorobutyl)imidazo[1,2-b]pyridazin-6-amine]
16 | ≤ 100 nM | CCCCNc1ccc2ncc(-c3ccc(OCCN)cc3)n2n1 [3-(4-(2-aminoethoxy)phenyl)-N-butylimidazo[1,2-b]pyridazin-6-amine]
17 | ≤ 100 nM | CC(C)(C)CCNc1ccc2ncc(-c3ccc(OCCCN)cc3)n2n1 [3-(4-(3-aminopropoxy)phenyl)-N-(3,3-dimethylbutyl)imidazo[1,2-b]pyridazin-6-amine]
18 | ≤ 100 nM | NCCCOc1ccc(-c2cnc3ccc(NCCCc4ccccc4)nn23)cc1 [3-(4-(3-aminopropoxy)phenyl)-N-(3-phenylpropyl)imidazo[1,2-b]pyridazin-6-amine]
